The source of these data is patent publication US6451767B1, “Benzylmaltotriosides as inhibitors of smooth muscle cell proliferation” (Wyeth, priority 1998, dated 2002).

The test system of series [1] is Porcine Smooth Muscle Cell. The experiment in a line: Cell proliferation using 3H thymidine incorporation. The series is classed as cell-based. Particulars: for inhibition at 500 µM: Sus scrofa, read-out: Porcine Smooth Muscle Cell Antiproliferation, % inhibition; for IC50: serum/growth factor stimulated cells, 3H thymidine incorporation, 24-36 h, read-out: Porcine Smooth Muscle Cell Antiproliferation IC50. As for the experimental part: Effects of Compounds on Cell Proliferation Using ^3H Thymidine Incorporation
Human and porcine smooth muscle cells were tested in early passage (generally passage 3-7) at sub-confluent conditions. Cultures were grown in 16 mm (24 well) multi-well culture dishes in medium 199 supplemented with 10% fetal bovine serum and 2% antibiotic/antimycotic. At sub-confluence, the cells were placed in a defined serum free medium (AIM-V; Gibco) for 24-48 h prior to initiating the experimental protocol.
Compounds were added to each well at 50 fold dilution (20 μL/well) and the plates were incubated for 24-36 h at 37° C. in 5% CO2. Compounds were initially dissolved in 50% ethanol and serially diluted into media. Compounds were routinely evaluated at concentrations from 1 to 100 μM. As a control, grade II porcine intestinal mucosal heparin (sodium salt) was routinely evaluated in all cell preparations at concentrations from 0.1 to 100 μg/mL.
At the completion of the test procedure, plates were placed on ice, washed three times with ice cold phosphate buffered saline (PBS) and incubated in ice cold 10% trichloroacetic acid (TCA) got 30 min to remove acid soluble proteins. Solution was transferred to scintillation vials containing 0.4 N HCl (500 μL/vial to neutralize NaOH) and each well was rinsed two times with water (500 μL) for a total volume of 2 mL/vial.
Data was obtained, in triplicate, for both control and experimental samples. Control (100%) data was obtained from maximally stimulated cells, as the result of growth factor or serum stimulation. Experimental data was obtained from cells maximally stimulated with growth factor or serum and treated with compound. Data are expressed as an IC50 in Table I below.

With `Nc1cc(COC2OC(CO)C(OC3OC(CO)C(OC4OC(CO)C(O)C(O)C4O)C(O)C3O)C(O)C2O)ccc1Cl` [Example 5, 5-(β-D-maltotriosyloxymethyl)-2-chloro-phenylamine], the melting point (usually the temperature, or range, at which the solid turns liquid) is 95 to 134 °C. Besides, the inhibition at 500 µM in series [1] is 25%.
Turning to “N-[5-(Deca-O-acetyl-β-D-maltotriosyloxymethyl)-2-chloro-phenyl]-acetamide [Example 2]”, the IC50 in series [1] was 22.5 µM.
Consider “N-[5-(Deca-O-sulfo-β-D-maltotriosyloxymethyl)-2-chloro-phenyl]-acetamide decasodium salt [Example 4]”, for which, in series [1], the IC50 was determined as 112 µM.
As to “5-(Deca-O-acetyl-β-D-maltotriosyloxymethyl)-2-chloro-1-nitrobenzene [Example 1]”, the IC50 in series [1] was determined as 1.8 µM.
The molecule `CC(=O)Nc1cc(COC2OC(CO)C(OC3OC(CO)C(OC4OC(CO)C(O)C(O)C4O)C(O)C3O)C(O)C2O)ccc1Cl` [Example 3, N-[5-(β-D-maltotriosyloxymethyl)-2-chloro-phenyl]-acetamide] had a melting point of 135 to 148 °C. For the same molecule, in series [1], the inhibition at 500 µM worked out at 10%.
